The target of data set [1] is T1, Endothelin receptor type B (Homo sapiens, UniProt P24530).
T1 sequence (P24530 whole entry): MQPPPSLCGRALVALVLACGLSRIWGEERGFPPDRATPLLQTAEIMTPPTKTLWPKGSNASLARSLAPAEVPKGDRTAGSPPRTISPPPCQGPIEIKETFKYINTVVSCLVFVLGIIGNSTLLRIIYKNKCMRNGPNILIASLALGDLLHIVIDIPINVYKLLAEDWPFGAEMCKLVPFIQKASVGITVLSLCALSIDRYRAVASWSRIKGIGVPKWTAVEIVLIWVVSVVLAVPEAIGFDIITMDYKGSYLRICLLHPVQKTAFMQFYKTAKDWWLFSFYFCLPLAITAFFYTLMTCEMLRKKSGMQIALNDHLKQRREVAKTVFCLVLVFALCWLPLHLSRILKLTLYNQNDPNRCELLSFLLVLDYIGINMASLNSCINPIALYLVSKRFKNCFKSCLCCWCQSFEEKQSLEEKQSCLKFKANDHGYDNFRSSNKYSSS

Data set [2] deals with T2, Endothelin-1 receptor (Homo sapiens, UniProt P25101).
T2 sequence (P25101 whole entry): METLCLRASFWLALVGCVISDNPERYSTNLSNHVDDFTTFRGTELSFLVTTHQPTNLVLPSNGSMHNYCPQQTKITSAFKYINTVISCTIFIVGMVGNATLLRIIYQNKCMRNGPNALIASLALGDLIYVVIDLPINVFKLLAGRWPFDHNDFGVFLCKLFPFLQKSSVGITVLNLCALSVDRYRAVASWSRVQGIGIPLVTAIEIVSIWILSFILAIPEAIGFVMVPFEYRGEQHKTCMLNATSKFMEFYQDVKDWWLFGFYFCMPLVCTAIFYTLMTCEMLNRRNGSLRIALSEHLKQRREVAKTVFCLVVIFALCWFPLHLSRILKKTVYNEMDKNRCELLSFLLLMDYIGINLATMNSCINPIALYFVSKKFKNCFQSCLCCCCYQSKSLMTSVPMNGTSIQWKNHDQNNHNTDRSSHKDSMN
Description: Binding affinity against human Endothelin A receptor

Data set [3] concerns the target T3, Potassium voltage-gated channel subfamily KQT member 1 (Cavia porcellus, UniProt O70344).
T3 sequence (O70344 whole entry): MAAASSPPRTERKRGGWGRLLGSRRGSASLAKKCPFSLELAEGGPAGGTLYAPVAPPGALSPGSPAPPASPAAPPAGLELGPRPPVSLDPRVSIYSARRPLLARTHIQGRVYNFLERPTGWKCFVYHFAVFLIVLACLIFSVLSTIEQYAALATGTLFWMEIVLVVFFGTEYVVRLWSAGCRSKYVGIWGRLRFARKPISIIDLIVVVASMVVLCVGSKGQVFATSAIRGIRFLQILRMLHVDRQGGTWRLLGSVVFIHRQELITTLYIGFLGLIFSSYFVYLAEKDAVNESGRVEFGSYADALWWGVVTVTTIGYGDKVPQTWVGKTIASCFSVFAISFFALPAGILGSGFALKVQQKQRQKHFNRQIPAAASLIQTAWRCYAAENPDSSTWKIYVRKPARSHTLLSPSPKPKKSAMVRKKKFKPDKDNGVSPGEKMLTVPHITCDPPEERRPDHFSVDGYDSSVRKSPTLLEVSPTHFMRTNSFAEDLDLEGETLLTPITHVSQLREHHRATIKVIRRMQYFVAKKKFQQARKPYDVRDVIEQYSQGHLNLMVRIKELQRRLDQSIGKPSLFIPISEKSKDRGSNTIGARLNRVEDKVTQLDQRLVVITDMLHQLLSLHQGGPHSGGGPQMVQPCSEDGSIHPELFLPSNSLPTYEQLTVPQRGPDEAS
The data set is classed as cell-based, Oocyte.
Description: (§1) Inhibition of guinea pig Iks potassium channel expressed in Xenopus oocytes

The target of data set [4] is T4, Acetylcholinesterase (Electrophorus electricus, UniProt O42275). The format is functional.
Description: (§2) Inhibitory concentration towards acetylcholinesterase in electric eel
Data set [5] deals with T5, Muscarinic acetylcholine receptor M1 (Homo sapiens, UniProt P11229).
T5 sequence (P11229 whole entry): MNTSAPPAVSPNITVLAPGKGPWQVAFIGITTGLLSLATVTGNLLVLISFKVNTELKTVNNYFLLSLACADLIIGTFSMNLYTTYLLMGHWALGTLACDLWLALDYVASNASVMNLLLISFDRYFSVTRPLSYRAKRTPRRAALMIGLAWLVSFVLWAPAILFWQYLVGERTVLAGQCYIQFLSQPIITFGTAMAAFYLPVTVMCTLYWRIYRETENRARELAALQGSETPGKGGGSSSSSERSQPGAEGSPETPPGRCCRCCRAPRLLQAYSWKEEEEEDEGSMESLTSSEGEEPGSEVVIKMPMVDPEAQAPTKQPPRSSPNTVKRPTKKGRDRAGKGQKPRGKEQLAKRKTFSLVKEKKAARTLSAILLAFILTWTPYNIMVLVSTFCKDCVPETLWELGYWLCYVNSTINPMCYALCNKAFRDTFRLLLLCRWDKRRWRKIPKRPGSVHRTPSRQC
Description: Binding affinity towards muscarinic M1 receptor

The target of data set [6] is Muscarinic acetylcholine receptor. The format is protein assay.
Description: (§3) Binding affinity towards human muscarinic receptor
Data set [7] concerns the target T6, Adrenergic receptor alpha-1 (Homo sapiens, UniProt P35348+P25100+P35368).
T6 sequence (P35348 whole entry): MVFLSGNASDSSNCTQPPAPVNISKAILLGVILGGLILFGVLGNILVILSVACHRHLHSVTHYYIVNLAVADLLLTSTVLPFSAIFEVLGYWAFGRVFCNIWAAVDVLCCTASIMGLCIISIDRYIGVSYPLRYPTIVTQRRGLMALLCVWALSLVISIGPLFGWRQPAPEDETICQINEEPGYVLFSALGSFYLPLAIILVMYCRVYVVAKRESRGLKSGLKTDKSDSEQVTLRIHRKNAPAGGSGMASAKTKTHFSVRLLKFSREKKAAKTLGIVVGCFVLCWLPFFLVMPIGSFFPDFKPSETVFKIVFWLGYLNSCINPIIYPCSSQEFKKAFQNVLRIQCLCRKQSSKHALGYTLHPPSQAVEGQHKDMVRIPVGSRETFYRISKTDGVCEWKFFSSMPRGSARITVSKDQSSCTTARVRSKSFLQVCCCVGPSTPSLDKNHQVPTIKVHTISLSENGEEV
T6 sequence (P25100 whole entry): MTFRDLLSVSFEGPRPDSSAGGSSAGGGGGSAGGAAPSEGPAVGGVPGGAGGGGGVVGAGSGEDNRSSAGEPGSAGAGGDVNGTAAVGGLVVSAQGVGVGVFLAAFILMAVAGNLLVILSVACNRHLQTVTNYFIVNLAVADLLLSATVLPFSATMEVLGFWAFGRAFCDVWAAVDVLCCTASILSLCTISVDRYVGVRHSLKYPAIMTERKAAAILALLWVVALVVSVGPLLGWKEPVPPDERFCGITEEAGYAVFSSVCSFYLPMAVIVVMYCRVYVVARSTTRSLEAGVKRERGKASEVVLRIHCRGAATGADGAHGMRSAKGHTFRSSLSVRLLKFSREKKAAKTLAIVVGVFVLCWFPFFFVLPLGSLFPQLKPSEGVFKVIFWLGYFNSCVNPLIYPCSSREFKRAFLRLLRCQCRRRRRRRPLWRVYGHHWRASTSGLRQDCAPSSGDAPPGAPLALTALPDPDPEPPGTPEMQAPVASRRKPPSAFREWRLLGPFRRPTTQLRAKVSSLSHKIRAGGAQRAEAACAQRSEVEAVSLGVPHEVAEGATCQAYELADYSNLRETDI
T6 sequence (P35368 whole entry): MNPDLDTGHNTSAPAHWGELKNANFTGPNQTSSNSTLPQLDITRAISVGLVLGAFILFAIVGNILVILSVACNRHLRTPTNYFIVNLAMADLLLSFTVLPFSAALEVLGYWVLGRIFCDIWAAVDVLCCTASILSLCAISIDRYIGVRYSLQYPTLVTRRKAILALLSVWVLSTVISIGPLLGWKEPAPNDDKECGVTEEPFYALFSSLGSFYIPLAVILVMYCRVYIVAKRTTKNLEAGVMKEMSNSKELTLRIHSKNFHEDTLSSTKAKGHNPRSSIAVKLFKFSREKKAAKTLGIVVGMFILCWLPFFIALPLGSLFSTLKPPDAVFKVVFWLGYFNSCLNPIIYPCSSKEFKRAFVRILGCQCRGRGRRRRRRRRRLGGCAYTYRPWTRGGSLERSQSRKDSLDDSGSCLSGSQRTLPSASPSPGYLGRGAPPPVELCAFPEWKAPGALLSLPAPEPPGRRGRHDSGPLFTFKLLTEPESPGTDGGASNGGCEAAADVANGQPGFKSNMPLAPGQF
Description: Binding affinity towards human alpha-1 adrenergic receptor

The target in another data set is D(4) dopamine receptor (Homo sapiens, UniProt P21917).
The next data set has as its target D(3) dopamine receptor (Homo sapiens, UniProt P35462).
Data set [8] concerns the target T3, Potassium voltage-gated channel subfamily KQT member 1. The format is functional, cell-based, Oocyte.
Description: as §1
For data set [9], the target named is T4, Acetylcholinesterase.
Description: as §2
For data set [10], the target named is T2, Endothelin-1 receptor. The source holds these as a separate data set.
Description: (§4) Inhibitory concentration against Endothelin A receptor
The species named for a further data set is Rattus norvegicus. The data set is classed as functional.
The next data set is described as follows: in vivo. The following applies: rat.
Data set [11] has as its target T2, Endothelin-1 receptor. This is another data set of the same source.
Description: as §4
The species named for a further data set is Homo sapiens. The data set is described as follows: cells. The format is functional, organism-based.
The target in data set [12] is T7, Muscarinic acetylcholine receptor M4 (Homo sapiens, UniProt P08173).
T7 sequence (P08173 whole entry): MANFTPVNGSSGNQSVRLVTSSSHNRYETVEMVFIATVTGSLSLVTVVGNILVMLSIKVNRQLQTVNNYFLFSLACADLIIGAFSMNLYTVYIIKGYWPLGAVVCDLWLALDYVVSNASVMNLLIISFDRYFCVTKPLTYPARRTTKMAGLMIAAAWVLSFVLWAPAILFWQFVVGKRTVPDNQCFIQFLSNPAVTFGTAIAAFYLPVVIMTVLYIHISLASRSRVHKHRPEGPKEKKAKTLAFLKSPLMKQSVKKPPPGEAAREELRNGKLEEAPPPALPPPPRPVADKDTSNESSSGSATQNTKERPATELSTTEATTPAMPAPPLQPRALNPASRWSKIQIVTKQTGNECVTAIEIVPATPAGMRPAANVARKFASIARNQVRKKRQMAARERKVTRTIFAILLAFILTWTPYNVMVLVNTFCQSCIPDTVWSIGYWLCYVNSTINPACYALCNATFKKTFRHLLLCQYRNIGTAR
Description: as §3

Molecules are shown by their SMILES.

T4 sequence (O42275 whole entry): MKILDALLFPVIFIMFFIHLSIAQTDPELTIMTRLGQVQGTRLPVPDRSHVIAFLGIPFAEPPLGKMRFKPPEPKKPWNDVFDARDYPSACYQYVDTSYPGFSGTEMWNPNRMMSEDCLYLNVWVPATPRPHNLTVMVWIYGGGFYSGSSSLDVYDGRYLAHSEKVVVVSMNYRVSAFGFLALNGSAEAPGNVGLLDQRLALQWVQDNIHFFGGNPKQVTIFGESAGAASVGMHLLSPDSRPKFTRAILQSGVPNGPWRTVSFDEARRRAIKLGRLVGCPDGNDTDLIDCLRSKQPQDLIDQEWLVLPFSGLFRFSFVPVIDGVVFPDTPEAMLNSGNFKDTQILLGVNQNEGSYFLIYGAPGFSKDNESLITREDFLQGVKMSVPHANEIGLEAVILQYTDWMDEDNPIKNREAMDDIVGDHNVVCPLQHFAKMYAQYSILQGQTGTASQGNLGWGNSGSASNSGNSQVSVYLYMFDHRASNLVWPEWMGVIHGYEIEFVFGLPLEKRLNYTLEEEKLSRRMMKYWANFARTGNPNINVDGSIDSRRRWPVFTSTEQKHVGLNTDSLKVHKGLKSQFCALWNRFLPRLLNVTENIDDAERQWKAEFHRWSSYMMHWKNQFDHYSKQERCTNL
Chain of D(4) dopamine receptor (P21917 whole entry, looked up): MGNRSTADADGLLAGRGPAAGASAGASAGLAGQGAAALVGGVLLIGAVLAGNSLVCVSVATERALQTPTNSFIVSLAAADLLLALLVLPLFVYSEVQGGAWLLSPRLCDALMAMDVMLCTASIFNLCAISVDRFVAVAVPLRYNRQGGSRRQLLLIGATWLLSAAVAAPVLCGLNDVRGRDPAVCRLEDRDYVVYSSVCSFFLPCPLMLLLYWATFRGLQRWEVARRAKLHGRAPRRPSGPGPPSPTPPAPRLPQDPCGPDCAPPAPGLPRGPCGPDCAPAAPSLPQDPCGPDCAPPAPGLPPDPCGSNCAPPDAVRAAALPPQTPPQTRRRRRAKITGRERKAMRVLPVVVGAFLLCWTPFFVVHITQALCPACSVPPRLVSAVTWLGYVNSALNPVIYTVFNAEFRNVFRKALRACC
Chain of D(3) dopamine receptor (P35462 whole entry): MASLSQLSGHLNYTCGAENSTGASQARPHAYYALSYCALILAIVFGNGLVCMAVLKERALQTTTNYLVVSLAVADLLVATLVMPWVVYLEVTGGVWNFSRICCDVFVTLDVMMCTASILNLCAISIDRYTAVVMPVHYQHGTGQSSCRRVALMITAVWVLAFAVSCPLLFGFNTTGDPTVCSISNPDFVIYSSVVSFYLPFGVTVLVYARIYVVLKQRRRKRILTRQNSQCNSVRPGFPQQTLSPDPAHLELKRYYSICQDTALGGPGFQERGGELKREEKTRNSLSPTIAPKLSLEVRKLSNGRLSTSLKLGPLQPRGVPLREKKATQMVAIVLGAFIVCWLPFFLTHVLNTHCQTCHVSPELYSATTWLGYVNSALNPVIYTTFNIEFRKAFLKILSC
Description for D(3) dopamine receptor: Binding affinity against Dopamine receptor D3
Description for D(4) dopamine receptor: Binding affinity against human Dopamine receptor D4 versus hD2, hD3 receptor
Description for Homo sapiens: Antiviral activity against human respiratory syncytial virus (RSV)
Description for Rattus norvegicus: Dose required for oral activity in rats

Turning to `COc1cc(OC)nc(CC(C(=O)O)C(C)(Oc2ccc(SC)cc2)c2ccccc2)n1` (configuration not stated), the inhibition constant Ki in [1] came to 4700 nM; on Endothelin-1 receptor [2], 160 nM. Regarding `CCS(=O)(=O)N(C)C1c2cc(C#N)ccc2OC(C)(C)[C@@H]1O` (single isomer, unassigned), half-maximal inhibition in data set [3] (IC50) was put at 5000 nM.

As for `c1ccc(-c2ccc(NCCN3CCCCC3)nn2)cc1`, at Acetylcholinesterase [4], the IC50 stood at 13000 nM. The same measure, in the same setting: in the case of `c1ccc(-c2ccc(NCCCCN3CCc4ccccc4C3)nn2)cc1` it was 1900 nM.

For `Cc1cc(NCCN2C3CCCC2CC3)nnc1-c1ccccc1O`, the affinity in data set [5] corresponds to a Ki of 3 nM. For `O=C1NCCN1CCN1CCC(c2cn(-c3ccc(F)cc3)c3ccc(Cl)cc23)CC1` [SERTINDOLE], the Ki is recorded as greater than 5000 nM in data set [6] and 1.8 nM in [7]. `COc1cccc(CN2CC[C@H](NC(=O)c3cc(Cl)c(NC(=O)C4CC4)cc3OC)C2)c1`: the affinity at D(4) dopamine receptor corresponds to a Ki of 5.62 nM. For the compound `CCCCN1CCCC1CNC(=O)c1cc(C#N)c2ccccc2c1OC` (configuration not stated) [NAFADOTRIDE], the affinity on D(3) dopamine receptor, expressed as Ki, was 0.11 nM. With `COc1cc(OC)nc(CC(C(=O)O)C(C)(Oc2ccc(C(C)C)cc2)c2ccccc2)n1` (configuration not stated), the inhibition constant (Ki) in [1] worked out at 3000 nM; on Endothelin-1 receptor [2], 250 nM. For `Cc1cc(NCCN2C3CCCC2CC3)nnc1-c1ccccc1`, in data set [5], the Ki worked out at 50 nM. The same measure, in the same setting: the result for `Cc1cc(NCCN2CCOCC2)nnc1-c1ccccc1` reads 550 nM. On to `CCS(=O)(=O)N(C)C1c2cc(C#N)ccc2OC(C)(C)[C@H]1O` (single isomer, unassigned), for which the IC50 in data set [8] stood at 6200 nM; in data set [3] it was 39000 nM.

For `Cc1cc(-c2ccccc2)nnc1NCCN1CCOCC1` [MINAPRINE], the Ki in data set [5] stood at 17000 nM. On Acetylcholinesterase [9], this compound showed an IC50 of 600000 nM. With `O=C1Cc2cc(CCN3CCN(c4nsc5ccccc45)CC3)c(Cl)cc2N1` [ZIPRASIDONE], the figures for the Ki in data set [6] and in [7] were greater than 5000 nM and 12 nM, respectively. Compound `Nc1ccc(S(=O)(=O)Nc2nccs2)cc1` [SULFATHIAZOLE] returned an IC50 on Endothelin-1 receptor [10] of 69000 nM. On to `Cc1noc(NS(=O)(=O)c2ccccc2-c2ccc(-c3ncco3)cc2CNC(=O)CC(C)(C)C)c1C`, for which, in the data set filed under Rattus norvegicus, the Dose came out at 3 µM/kg. Besides, the bioavailability in the data set “in vivo” stood at 100%. At Endothelin-1 receptor [11], this compound displayed a Ki of 0.01 nM.

In turn, `NC(=O)CCN(CCC(N)=O)S(=O)(=O)c1cccc(Nc2nc(Nc3cccc(S(=O)(=O)N(CCC(N)=O)CCC(N)=O)c3)nc(Nc3ccc(-c4ccc(Nc5nc(Nc6cccc(S(=O)(=O)N(CCC(N)=O)CCC(N)=O)c6)nc(Nc6cccc(S(=O)(=O)N(CCC(N)=O)CCC(N)=O)c6)n5)cc4S(=O)(=O)O)c(S(=O)(=O)O)c3)n2)c1` gave an IC50 in the data set filed under Homo sapiens of 50 nM. Still for that read-out and setting: in the case of `NC(=O)CCN(CCC(N)=O)S(=O)(=O)c1cccc(Nc2nc(Nc3cccc(S(=O)(=O)N(CCC(N)=O)CCC(N)=O)c3)nc(Nc3ccc(/C=C/c4ccc(Nc5nc(Nc6cccc(S(=O)(=O)N(CCC(N)=O)CCC(N)=O)c6)nc(Nc6cccc(S(=O)(=O)N(CCC(N)=O)CCC(N)=O)c6)n5)cc4S(=O)(=O)O)c(S(=O)(=O)O)c3)n2)c1` it was 150 nM.

Compound `CN(C)CCOC1=Cc2ccccc2Sc2ccc(Cl)cc21` [ZOTEPINE] registered a Ki in data set [12] of 550 nM.

The term Ki denotes a dissociation constant, usually derived from enzyme kinetics or from competition with a known ligand. A high value points to lower affinity. In general, IC50 refers to the midpoint of a concentration-inhibition curve. The low end stands for greater potency in that assay, the high end for weaker potency in that assay. Broadly, the bioavailability is the share of a dose that reaches the circulation, judged against a reference dose that is usually intravenous. A high value points to much systemic uptake.

The record behind these values is ChEMBL document CHEMBL1149193, “Selective optimization of side activities: another way for drug discovery” (J Med Chem, 2004).
